Measurements taken from US20250051330A1, “HETEROCYCLIC COMPOUND HAVING ANTI-TUMOR ACTIVITY AND USE THEREOF” (CSPC Zhongqi Pharmaceutical Technology (Shijiazhuang) Co., …, priority 2021, published 2025).

These compounds were tested against T1, K-Ras^G12D and hSOS1 (Homo sapiens, UniProt Q07889) (assay: K-Ras G12D and hSOS1 binding assay (HTRF)). Conditions: inhibition of binding of K-Ras G12D to hSOS1, HTRF; read-out: Activity by IC50 (nM), SOS1 inhibitory activity.
T1 construct: variant: G12D
Method: 1. K-Ras^G12D and hSOS1 Binding Assay
This assay could be used to examine the potency of the compounds to inhibit the protein-protein interaction between SOS1 and KRAS G12D. The binding of anti-GSK-Europium (FRET donor)-conjugated GST-KRas^G12D to anti-6His-XL665-conjugated His-tagged hSOS1 ([…]) was detected by homogeneous time-resolved fluorescence (HTRF), and the inhibitory effects of the compounds on the binding of K-Ras^G12D to hSOS1 were determined.
• Buffer (5 mM HEPES pH 7.4, 150 mM NaCl, 10 mM EDTA, 1 mM DTT, 0.05% BAS pH 7.0, 0.0025% 1gepal, and 100 mM KF); • GST-tagged hK-RasG12D (produced in-house); • His-tagged hSOS1 (produced in-house);
• 10 nM (final concentration) GST-hK-RasG12D and 2 nM (final concentration) anti-GSK-Europium in assay buffer were mixed, and set aside at room temperature.
• 20 nM (final concentration) His-tagged hSOS1 and 10 nM (final concentration) anti-6His-XL665 in assay buffer were mixed, and set aside at room temperature.
The test compound was dissolved in DMSO at a concentration of 100 times the assay concentration. 50 nL of the solution of compound was pipetted by Hummingbird liquid handler or Echo acoustic system to a black microassay plate.
All the experimental steps were conducted at 20° C. In the experiment, 2.5 μL of the liquid mixture of Ras was added to all wells of the assay plate using a Multidrop dispenser. After pre-incubation for 2 min, 2.5 μL of the liquid mixture of SOS was added to all the test wells other than the marginal wells, and 2.5 μL of the […], as a control, was added to the marginal wells. After incubation for 60 min, the assay plate passed through the HTRF module of Pheraster (excitation light: 337 nm, emission light 1: 620 nm, emission light 2: 665 nm).
The IC50 values were calculated and analyzed using a four-parameter logistic regression model.

T1 sequence (Q07889 whole entry, looked up, stated change not applied): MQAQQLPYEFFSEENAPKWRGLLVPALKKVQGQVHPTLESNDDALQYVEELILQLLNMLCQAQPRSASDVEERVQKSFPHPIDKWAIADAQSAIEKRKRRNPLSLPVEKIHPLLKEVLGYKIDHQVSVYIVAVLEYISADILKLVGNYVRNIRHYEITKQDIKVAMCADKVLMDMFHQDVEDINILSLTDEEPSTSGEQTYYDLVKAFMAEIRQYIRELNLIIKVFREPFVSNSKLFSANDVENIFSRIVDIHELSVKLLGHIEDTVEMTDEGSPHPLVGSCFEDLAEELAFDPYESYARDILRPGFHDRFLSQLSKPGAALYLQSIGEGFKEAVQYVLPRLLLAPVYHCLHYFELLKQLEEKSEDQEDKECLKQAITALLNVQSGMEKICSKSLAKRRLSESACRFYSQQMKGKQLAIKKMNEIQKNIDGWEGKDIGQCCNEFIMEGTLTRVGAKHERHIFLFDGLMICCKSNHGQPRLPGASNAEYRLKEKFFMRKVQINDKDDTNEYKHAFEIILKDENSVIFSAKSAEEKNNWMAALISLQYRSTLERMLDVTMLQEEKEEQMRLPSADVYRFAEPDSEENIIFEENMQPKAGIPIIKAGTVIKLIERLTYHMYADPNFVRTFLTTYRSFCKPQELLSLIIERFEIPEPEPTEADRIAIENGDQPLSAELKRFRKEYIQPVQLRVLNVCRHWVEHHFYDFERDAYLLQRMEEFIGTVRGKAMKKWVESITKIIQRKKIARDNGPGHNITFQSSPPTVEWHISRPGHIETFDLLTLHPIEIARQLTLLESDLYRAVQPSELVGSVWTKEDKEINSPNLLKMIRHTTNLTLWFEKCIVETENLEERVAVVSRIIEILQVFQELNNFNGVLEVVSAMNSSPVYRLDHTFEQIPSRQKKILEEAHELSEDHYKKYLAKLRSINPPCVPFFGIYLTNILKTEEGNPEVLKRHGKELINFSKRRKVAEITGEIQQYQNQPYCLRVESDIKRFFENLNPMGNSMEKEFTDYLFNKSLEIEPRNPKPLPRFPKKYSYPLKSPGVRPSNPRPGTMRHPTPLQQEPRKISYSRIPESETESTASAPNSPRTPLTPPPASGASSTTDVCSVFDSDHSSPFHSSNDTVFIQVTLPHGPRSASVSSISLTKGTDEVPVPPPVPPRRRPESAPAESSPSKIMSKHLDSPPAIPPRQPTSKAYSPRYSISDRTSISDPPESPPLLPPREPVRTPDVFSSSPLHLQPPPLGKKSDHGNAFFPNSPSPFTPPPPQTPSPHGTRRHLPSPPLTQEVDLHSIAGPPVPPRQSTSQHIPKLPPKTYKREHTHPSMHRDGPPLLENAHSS

SMILES | IC50 [nM]
CC(=O)N1CC=C(c2cc3c(N[C@H](C)c4cccc(C(F)(F)F)c4)nc(C)nc3n3cnnc23)CC1 [Example 2] | 10 to 50
Cc1nc(N[C@H](C)c2cccc(C(F)(F)F)c2)c2cc(N3CCN(C)CC3)c3nncn3c2n1 [Example 3] | 10 to 50
Cc1nc(N[C@H](C)c2cccc(C(F)(F)F)c2)c2cc(N3CCOCC3)c3nncn3c2n1 [Example 4] | 10 to 50
Cc1nc(N[C@H](C)c2cccc(C(F)F)c2F)c2cc(-c3ccn(C)c(=O)c3)n3cnnc3c2n1 [Example 9] | 10 to 50
Cc1nc(N[C@H](C)c2cccc(C(F)(F)F)c2F)c2cc(-c3ccn(C)c(=O)c3)n3cnnc3c2n1 [Example 10] | 10 to 50
Cc1nc(N[C@H](C)c2cccc(C(F)F)c2F)c2c(n1)N1CCN=C1C(c1ccc(=O)[nH]c1)=C2 [Example 12] | < 10
CC(=O)N1CC=C(C2=Cc3c(N[C@H](C)c4cccc(C(F)F)c4F)nc(C)nc3N3CCN=C23)CC1 [Example 31] | 10 to 50
Cc1nc(N[C@H](C)c2cccc(C(F)(F)F)c2)c2c(n1)N1CCN=C1C(c1ccc(=O)n(C)c1)=C2 [Example 65] | 10 to 50
Cc1nc(N[C@H](C)c2cccc(C(F)(F)CO)c2)c2c(n1)N1CCN=C1C(c1ccc(=O)n(C)c1)=C2 [Example 71] | < 10
Cc1nc(N[C@H](C)c2cccc(C(F)(F)F)c2)c2c(n1)N1CCN=C1C(c1ccc(=O)n(CCO)c1)=C2 [Example 97] | < 10
CCn1cc(C2=Cc3c(N[C@H](C)c4cccc(C(F)(F)F)c4)nc(C)nc3N3CCN=C23)ccc1=O [Example 98] | < 10
Cc1nc(N[C@H](C)c2cccc(C(F)(F)F)c2)c2c(n1)N1CCN=C1C(c1cccn(C)c1=O)=C2 [Example 99] | 10 to 50
[2H]C([2H])([2H])n1ccc(C2=Cc3c(N[C@H](C)c4cccc(C(F)(F)F)c4)nc(C)nc3N3CCN=C23)cc1=O [Example 109] | 10 to 50
Cc1nc(N[C@H](C)c2cccc(C(F)(F)CO)c2)c2c(n1)N1CCN=C1C(c1ccn(C)c(=O)c1)=C2 [Example 118] | < 10
Cc1nc(N[C@H](C)c2cccc(C(F)F)c2F)c2c(n1)N1CCN=C1C(C1=CCN(S(C)(=O)=O)CC1)=C2 [Example 122] | < 10
Cc1nc(N[C@H](C)c2cccc(C(F)F)c2F)c2c(n1)N1CCN=C1C(C1=CCN(C(=O)CC#N)CC1)=C2 [Example 123] | < 10
Cc1nc(N[C@H](C)c2cccc(C(F)F)c2F)c2c(n1)N1CCN=C1C(C1=CCN(C(=O)C3(F)CC3)CC1)=C2 [Example 124] | < 10

These compounds were tested on NCI-H358 cells (assay: 3D cell proliferation inhibition assay (CellTiter-Glo 3D)). Conditions: Homo sapiens, 192 h; NCI-H358 (KRAS G12C-mutated NSCLC), 3D culture, CTG 3D read on Day 8; read-out: Activity by IC50 (nM), inhibitory activity against NCI-H358 cell proliferation.
Type: cell-based
Source text: The cell proliferation inhibition assay was used to determine the abilities of compounds to inhibit the proliferation and growth of SOS1-mediated tumor cells at the in vitro 3D cellular level. The CellTiter-Glo® 3D Cell Viability Assay was employed.
• NCI-H358: KRAS G12C-mutated non-small cell lung cancer (NSCLC); • CellTiter-Glo® 3D Cell Viability Assay, Promega, G9683; • RPMI 1640 medium, Gibco, A10491-01; • FBS, Gibco, 10099141C.
• Day 1: NCI-H358 cells were passaged into a T75 cell culture flask. • Day 3: the medium was removed; the cells were rinsed once with DPBS, and digested at room temperature or at 37° C. using 2 mL of TrypLE™ Express Enzyme until the cells were detached; the resultant was added with 5 mL of fresh medium, and centrifuged at 1000 rpm for 5 min; the supernatant was discarded, and 5 mL of fresh medium was added to resuspend the cells; the cells were counted and then seeded at 40 μL/well in a 3D cell culture plate (Echo Qualified 384-Well Polypropylene Microplate 2.0, Clear, Flat Bottom).
• Day 1: the test compound was dissolved in DMSO to prepare a 10 mM stock solution; after a 1000-fold dilution with DMSO, the test compound solution was subjected to ten 3-fold serial dilutions starting from a concentration of 10 μM; 200 nL of the compound solution was added to the culture plate. • Day 8: CTG 3D reagent was added at 40 μL/well, and the signal was detected using Envision.
The IC50 values of the compounds were fitted using the Graphpad Prism 8 nonlinear regression equation.
[formula] • X: Log of cpd concentration; • Y: Percent inhibition (% inh).

SMILES | IC50 [nM]
CC(=O)N1CC=C(c2cc3c(N[C@H](C)c4cccc(C(F)(F)F)c4)nc(C)nc3n3cnnc23)CC1 [Example 2] | 100 to 500
Cc1nc(N[C@H](C)c2cccc(C(F)(F)F)c2)c2cc(N3CCN(C)CC3)c3nncn3c2n1 [Example 3] | 100 to 500
Cc1nc(N[C@H](C)c2cccc(C(F)(F)F)c2)c2cc(N3CCOCC3)c3nncn3c2n1 [Example 4] | 100 to 500
Cc1nc(N[C@H](C)c2cccc(C(F)F)c2F)c2c(n1)N1CCN=C1C(c1ccc(=O)[nH]c1)=C2 [Example 12] | 100 to 500
CC(=O)N1CC=C(C2=Cc3c(N[C@H](C)c4cccc(C(F)F)c4F)nc(C)nc3N3CCN=C23)CC1 [Example 31] | < 50
Cc1nc(N[C@H](C)c2cccc(C(F)(F)F)c2)c2c(n1)N1CCN=C1C(c1ccc(=O)n(C)c1)=C2 [Example 65] | 100 to 500
Cc1nc(N[C@H](C)c2cccc(C(F)(F)CO)c2)c2c(n1)N1CCN=C1C(c1ccc(=O)n(C)c1)=C2 [Example 71] | 100 to 500
Cc1nc(N[C@H](C)c2cccc(C(F)(F)F)c2)c2c(n1)N1CCN=C1C(c1cccnc1)=C2 [Example 94] | 100 to 500
Cc1nc(N[C@H](C)c2cccc(C(F)(F)F)c2)c2c(n1)N1CCN=C1C(c1cncc(C#N)c1)=C2 [Example 95] | 100 to 500
Cc1nc(N[C@H](C)c2cccc(C(F)(F)F)c2)c2c(n1)N1CCN=C1C(c1ccc(=O)n(CCO)c1)=C2 [Example 97] | 100 to 500
CCn1cc(C2=Cc3c(N[C@H](C)c4cccc(C(F)(F)F)c4)nc(C)nc3N3CCN=C23)ccc1=O [Example 98] | 100 to 500
Cc1nc(N[C@H](C)c2cccc(C(F)(F)F)c2)c2c(n1)N1CCN=C1C(c1cccn(C)c1=O)=C2 [Example 99] | 100 to 500
COCCn1cc(C2=Cc3c(N[C@H](C)c4cccc(C(F)(F)F)c4)nc(C)nc3N3CCN=C23)ccc1=O [Example 100] | 100 to 500
Cc1nc(N[C@H](C)c2cccc(C(F)(F)F)c2)c2c(n1)N1CCN=C1C(c1ccc(=O)n(CC(F)F)c1)=C2 [Example 101] | 100 to 500
Cc1nc(N[C@H](C)c2cccc(C(F)(F)F)c2)c2c(n1)N1CCN=C1C(c1cccc(=O)n1C)=C2 [Example 102] | 100 to 500
Cc1nc(N[C@H](C)c2cccc(C(F)(F)F)c2)c2c(n1)N1CCN=C1C(c1cnc(=O)n(C)c1)=C2 [Example 103] | 100 to 500
Cc1nc(N[C@H](C)c2cccc(C(F)(F)F)c2)c2c(n1)N1CCN=C1C(c1cn(C)c(=O)n(C)c1=O)=C2 [Example 104] | 100 to 500

SMILES | IC50 [nM]
Cc1nc(N[C@H](C)c2cccc(C(F)(F)F)c2)c2c(n1)N1CCN=C1C(c1ccc(=O)n(C(C)C)c1)=C2 [Example 105] | 100 to 500
Cc1nc(N[C@H](C)c2cccc(C(F)(F)F)c2)c2c(n1)N1CCN=C1C(c1cc(C)c(=O)n(C)c1)=C2 [Example 106] | 100 to 500
Cc1nc(N[C@H](C)c2cccc(C(F)(F)F)c2)c2c(n1)N1CCN=C1C(c1ccn(CCO)c(=O)c1)=C2 [Example 107] | 100 to 500
Cc1nc(N[C@H](C)c2cccc(C(F)(F)F)c2)c2c(n1)N1CCN=C1C(c1ccn(C3COC3)c(=O)c1)=C2 [Example 108] | 50 to 100
[2H]C([2H])([2H])n1ccc(C2=Cc3c(N[C@H](C)c4cccc(C(F)(F)F)c4)nc(C)nc3N3CCN=C23)cc1=O [Example 109] | 50 to 100
C[C@@H](Nc1nc(C2CC2)nc2c1C=C(c1ccn(C)c(=O)c1)C1=NCCN12)c1cccc(C(F)(F)F)c1 [Example 110] | 100 to 500
C[C@@H](Nc1nc(C2CC2)nc2c1C=C(c1ccc(=O)n(C)c1)C1=NCCN12)c1cccc(C(F)(F)F)c1 [Example 111] | 100 to 500
Cc1nc(N[C@H](C)c2cccc(C(F)(F)F)c2)c2c(n1)N1CCN=C1C(c1ccn(CF)c(=O)c1)=C2 [Example 113] | 100 to 500
Cc1nc(N[C@H](C)c2cc(C(F)(F)F)ccn2)c2c(n1)N1CCN=C1C(c1ccn(C)c(=O)c1)=C2 [Example 117] | 100 to 500
Cc1nc(N[C@H](C)c2cccc(C(F)(F)CO)c2)c2c(n1)N1CCN=C1C(c1ccn(C)c(=O)c1)=C2 [Example 118] | 100 to 500
Cc1nc(N[C@H](C)c2cccc(C(F)(F)C(C)(C)O)c2F)c2c(n1)N1CCN=C1C(c1ccc(=O)n(C)c1)=C2 [Example 119] | 50 to 100
Cc1nc(N[C@H](C)c2cccc3c2OCC3(F)F)c2c(n1)N1CCN=C1C(c1ccc(=O)n(C)c1)=C2 [Example 120] | 100 to 500
Cc1nc(N[C@H](C)c2cccc3c2OCC3(F)F)c2c(n1)N1CCN=C1C(c1ccn(C)c(=O)c1)=C2 [Example 121] | 100 to 500
Cc1nc(N[C@H](C)c2cccc(C(F)F)c2F)c2c(n1)N1CCN=C1C(C1=CCN(S(C)(=O)=O)CC1)=C2 [Example 122] | 50 to 100
Cc1nc(N[C@H](C)c2cccc(C(F)F)c2F)c2c(n1)N1CCN=C1C(C1=CCN(C(=O)CC#N)CC1)=C2 [Example 123] | 50 to 100
Cc1nc(N[C@H](C)c2cccc(C(F)F)c2F)c2c(n1)N1CCN=C1C(C1=CCN(C(=O)C3(F)CC3)CC1)=C2 [Example 124] | 50 to 100
Cc1nc(N[C@H](C)c2cccc(C(F)F)c2F)c2c(n1)N1CCN=C1C(C1(O)CCN(C(=O)C3(F)CC3)CC1)=C2 [Example 125] | 50 to 100

Same assay, conditions: Homo sapiens, NCI-H358, 192 h, read-out: Activity by IC50 (nM), inhibitory activity against NCI-H358 cell proliferation

SMILES | IC50 [nM]
Cc1nc(N[C@H](C)c2cc(N)cc(C(F)(F)F)c2)c2c(n1)N1CCN=C1C(c1ccn(C)c(=O)c1)=C2 [Example 6] | < 50
Cc1nc(N[C@H](C)c2cccc(C(F)F)c2F)c2c(n1)N1CCN=C1C(c1ccn(C)c(=O)c1)=C2 [Example 7] | < 50
